This note sets out measurements from patent US20070093524A1, “5-Lipoxygenase modulators” (Wyeth, priority 2005, published 2007).

In one data set the test system is 5-LO mRNA. Briefly: Downregulation of 5-LO gene expression (5-LO mRNA by real-time RT-PCR) in acetylated-LDL-stimulated macrophage cell lines. Type of data set: cell-based, human and mouse. Particulars: macrophage cell line (THP-1 or J774, not specified); for inhibition at 0.3 µM: 0.3 uM compound; for inhibition at 3 µM: 3.0 uM compound. How it is done: A panel of LXR or PPAR modulator compounds was tested to determine whether they could downregulate 5-LO gene expression. The compounds were individually tested to determine whether they could downregulate 5-LO gene expression in human and mouse macrophage cell lines.
Preparation of Acetylated LDL: LDL was dialyzed with 500 mL phosphate buffered saline (PBS) three times. 2.5 mL of dialyzed LDL was mixed with 2.5 mL of saturated sodium acetate with continuous stirring in an ice-water bath. Acetic anhydride was added in 7 times 7.5 μL over a period of 1 hour with continuous stirring. Then, the mixture was stirred for an additional 1 hour. The solution was dialyzed against 500 mL PBS containing 0.3 mM EDTA three times. The protein concentration is determined using Bio-Rad DC protein assay kit.
Cell Culture and Compound Treatment: Human THP-1 cells were maintained in RPMI 1640 medium containing 10% Fetal Bovine Serum (FBS), 25 mM Hepes buffer, […] Genamicin, 1 mM Sodium pyruvate, and 50 μM β-mercaptoethanol. THP-1 cells were differentiated with 75 ng/mL phorbal 12,13-dibutyrate (PDBu) three days prior to assay to induce differentiation of the cells into adherent macrophages. Cells were seeded in 12 well plates in 1 mL of complete media. Each well contained 400,000 cells. The cells were stimulated with RPMI 1640 medium (1% FBS) containing 100 μg/mL acetylated-LDL in presence of phorbol ester for 48 hours, including several wells without acetylated-LDL treatment as a control. The medium was then changed to RPMI 1640 medium without FBS, plus the test compounds with phorbol ester for 48 hours. Control cells were not incubated with test compounds. The cells were incubated at 37° C. in a humidified CO2 incubator. The cells were then ready for RNA extraction.
Murine J774 cells were maintained in DMEM (high glucose) containing 10% FBS, 100 units/mL penicillin, and 100 μg/mL streptomycin. Six hours prior to assay, J774 cells were seeded into 96-well plates in 150 μL complete media. Each well contains 75,000 cells. The cells were stimulated with DMEM-high glucose (1% FBS) containing 100 μg/mL acetylated-LDL for 24 to 48 hours, including several wells without acetylated-LDL treatment as a control. The media was then changed to DMEM-high glucose (without FBS) plus the test compounds for 24 to 48 hours. Compounds were dosed in DMSO vehicle and control cells were treated with vehicle alone. The cells were incubated at 37° C. in a humidified CO2 incubator. The cells were then ready for RNA isolation.
RNA analysis: Total RNA was isolated from the THP-1 cells by using a QIAGEN RNeasy Mini Kit. Real-time quantitative RT-PCR assays were performed using an Applied Biosystems 7900 sequence detector. Each amplification mixture (50 μL) contained 50-100 ng of total RNA, 200 nM forward primer, 200 nM reverse primer, and 200 nM dual-labeled fluorogenic probe. The RT-PCR reagent is from QIAGEN (QuantiTect Probe RT-PCR kit). The RT-PCR thermocycling parameters were 48° C. for 30 minutes, 95° C. for 10 minutes, and 40 cycles at 95° C. for 15 seconds and 55° C. for 1 minute. The samples, no-RT controls, and serially diluted RNA standards were analyzed in parallel. The 5-LO target gene was analyzed and normalized for human glyceraldehyde-3-phosphate dehydrogenase (GAPDH) expression using probe and primers from predeveloped assays for GAPDH (Applied Biosystems). Quantitative analysis was performed using the threshold procedure, and relative amounts were calculated from the standard curve.
Total RNA from the J774 cells was isolated by using the ABI 6100 RNA isolation system for 96-well plates (the THP-1 cells can also be cultured and tested in 96-well plates). Real-time quantitative RT-PCR assays were performed using an Applied Biosystems 7900 sequence detector. Each amplification mixture (50 μL) contained 50-100 ng of total RNA, 200 nM forward primer, 200 nM reverse primer, and 250 nM dual-labeled fluorogenic probe.
In general terms: Real-time PCR tracks product formation cycle by cycle.

`O=C(O)Cc1ccc(COc2cccc(-c3c(-c4ccccc4)cnc4c(C(F)(F)F)cccc34)c2)cc1` [Compound I-3, {4-[3-(3-Phenyl-8-trifluoromethyl-quinolin-4-yl)-phenoxymethyl]-phenyl}-acetic acid] registered a melting point of 122 °C. For the same compound, the inhibition at 0.1 µM with 5-LO mRNA (0.1 uM compound) is 88%. The same compound gave an inhibition at 1 µM in the data set on 5-LO mRNA (1.0 uM compound) of 89%.
`CCOC(=O)Cc1cccc(CNc2cccc(-c3c(C(=O)c4ccccc4)cnc4c(C(F)(F)F)cccc34)c2)c1` [Compound I-13, (3-{[3-(3-Benzoyl-8-trifluoromethyl-quinolin-4-yl)-phenylamino]-methyl}-phenyl)-acetic acid ethyl ester]: in the data set on 5-LO mRNA, the inhibition at 0.3 µM turned out to be 40% and the inhibition at 3 µM turned out to be 30%.
As for `CCOC(=O)Cc1ccc(COc2cccc(-c3c(-c4ccccc4)cnc4c(C(F)(F)F)cccc34)c2)cc1` [Compound I-14, {4-[3-(3-Phenyl-8-trifluoromethyl-quinolin-4-yl)-phenoxymethyl]-phenyl}-acetic acid ethyl ester], in the data set on 5-LO mRNA, the inhibition at 0.3 µM amounted to 81% and 3 µM produced 84% inhibition.
On the same counts, the results for `CCOC(=O)Cc1ccc(COc2cccc(-c3c(Cc4ccccc4)cnc4c(C(F)(F)F)cccc34)c2)cc1` [Compound I-15, {4-[3-(3-Benzyl-8-trifluoromethyl-quinolin-4-yl)-phenoxymethyl]-phenyl}-acetic acid ethyl ester] are 79% and 76%.
The corresponding values for `COc1cc(CNc2cccc(-c3c(Cc4ccccc4)cnc4c(C(F)(F)F)cccc34)c2)ccc1O` [Compound I-17, 4-{[3-(3-Benzyl-8-trifluoromethyl-quinolin-4-yl)-phenylamino]-methyl}-2-methoxy-phenol] are 41% and 53%.
In the case of `Oc1cccc(CNc2cccc(-c3c(Cc4ccccc4)cnc4c(C(F)(F)F)cccc34)c2)c1O` [Compound I-18, 3-{[3-(3-Benzyl-8-trifluoromethyl-quinolin-4-yl)-phenylamino]-methyl}-benzene-1,2-diol], in the data set on 5-LO mRNA, the inhibition at 0.3 µM amounted to 63% and the inhibition at 3 µM is 58%.
The corresponding values for `CCOc1cc(CNc2cccc(-c3c(Cc4ccccc4)cnc4c(C(F)(F)F)cccc34)c2)ccc1O` [Compound I-19, 4-{[3-(3-Benzyl-8-trifluoromethyl-quinolin-4-yl)-phenylamino]-methyl}-2-ethoxy-phenol] are 22% and 60%.
`COC(=O)Cc1ccc(CNc2cccc(-c3c(C)cnc4c(C(F)(F)F)cccc34)c2)cc1` [Compound I-20, (4-{[3-(3-Methyl-8-trifluoromethyl-quinolin-4-yl)-phenylamino]-methyl}-phenyl)-acetic acid methyl ester]: in the data set on 5-LO mRNA, at 0.3 µM the inhibition was 78% and the inhibition at 3 µM amounted to 78%.
For the compound `COC(=O)C(C)c1ccc(CNc2cccc(-c3c(C)cnc4c(C(F)(F)F)cccc34)c2)cc1` (centres unmarked) [Compound I-21, 2-(4-{[3-(3-Methyl-8-trifluoromethyl-quinolin-4-yl)-phenylamino]-methyl}-phenyl)-propionic acid methyl ester], in the data set on 5-LO mRNA, the inhibition at 0.3 µM turned out to be 78% and the inhibition at 3 µM was found to be 63%.
In the data set with 5-LO mRNA, `COC(=O)C(C)(C)c1ccc(CNc2cccc(-c3c(C)cnc4c(C(F)(F)F)cccc34)c2)cc1` [Compound I-22, 2-Methyl-2-(4-{[3-(3-methyl-8-trifluoromethyl-quinolin-4-yl)-phenylamino]-methyl}-phenyl)-propionic acid methyl ester] returned an inhibition at 0.3 µM of 67% and an inhibition at 3 µM of 55%.
For the compound `COC(=O)COc1ccc(COc2cccc(-c3c(-c4ccccc4)cnc4c(C(F)(F)F)cccc34)c2)cc1` [Compound I-23, {4-[3-(3-Phenyl-8-trifluoromethyl-quinolin-4-yl)-phenoxymethyl]-phenoxy}-acetic acid methyl ester], in the data set on 5-LO mRNA, 0.3 µM produced 76% inhibition and the inhibition at 3 µM turned out to be 92%.

The inhibition is the share of the control response that was lost under treatment. Read a low inhibition as a weak effect. As usually defined, the melting point is the temperature of the solid-liquid transition.
